Data from patent US20080171718A1, “Methods and Compositions for Treating Cancer Using BCL-2 Antisense Oligomers, Tyrosine Kinase Inhibitors, and Chemotherapeutic Agents” (priority 2006, published 2008).
“Also recorded” adds a separate entry of the source.

System: A549 human lung cancer model
Assay: Tumor growth delay in A549 human lung cancer model in SCID mice
Assay type: in vivo
Conditions: for effect of the tyrosine kinase inhibitor in triplet therapy with Bcl-2 antisense and cytotoxic chemotherapeutic (comparison, interaction): A549 model, triplet with Genasense and Taxol/Abraxane
Description: Genasense® (G3139 by Genta, Bcl-2 inhibitor, also referred to in the Figures as “OBL”), Abraxane® (by Abraxis, paclitaxel), and Taxol® (by Bristol Myers Squibb, paclitaxel) were submitted for evaluation in combination with tyrosine kinase inhibitors against an A549 human lung cancer model in severe combined immune deficient (SCID) mice. Ten treatment groups having 10 mice per group were analyzed for tumor growth delay. G3139, Abraxane, and Taxol were administered via intravenous (IV) injection, and tyrosine kinase inhibitors were administered via oral gavage (PO).
The mice were injected with 100 μl tumor cells subcutaneously (SC). […] On the 15th day, treatment cycles of 5 days on and 2 days off began for a series of 3 cycles. During treatment, the mice were weighed twice daily. Tumor volume estimation (mm^3) was made in accordance with the formula (a^2×b/2), where “a” is the smallest diameter and “b” is the largest diameter. All procedures were completed in accordance with established animal care protocols.
Subconfluent cells were harvested by using 0.23% trypsin-EDTA (HyClone, Logan, Utah) and were counted using the trypan blue assay technique. Cells (99% viability) were re-suspended at the concentration of 10×10^6 cells/100 μl of sterile saline.
G3139 was prepared fresh each treatment day from a refrigerated stock solution of 30 mg/ml using sterile saline as the vehicle; while tyrosine kinase inhibitors in capsule form were brought up to the desired concentration using 10% DMSO and 90% sterile saline as the vehicle. Taxol (Infusion Solutions, Tucson, Az.) was prepared fresh each treatment day from a refrigerated stock solution of 6 mg/ml in Cremaphor EL/EtOH using sterile saline as the vehicle. Abraxane was prepared from a frozen stock of 5 mg/ml with the diluent of sterile saline. G3139 (20 mg/kg) was administered twice during each 5-day treatment cycle, on day 3 and on day 5. […] G3139 was administered at a volume of 0.1 ml using a 27 gauge needle (Becton Dickinson). Abraxane and Taxol were administered at a volume of 0.2 ml using a 27 gauge needle. […]

CNC(=O)c1cc(Oc2ccc(NC(=O)Nc3ccc(Cl)c(C(F)(F)F)c3)cc2)ccn1 [Nexavar, sorafenib]
effect of the tyrosine kinase inhibitor in triplet therapy with Bcl-2 antisense and cytotoxic chemotherapeutic (comparison, interaction): comparable to Sutent in the triplet therapy and more effective than Gleevec; also recorded: unexpectedly enhanced interaction | tumor growth / tumor growth inhibition compared to the negative control (tumor volume versus days post implantation) (FIG. 1-3, single agent, SC A549 tumors, 3 cycles of 5 days on/2 days off from day 15, Taxol/Abraxane 13.4 mg/kg IV day 1, Gleevec 100 mg/kg, Sutent/Nexavar 40 mg/kg PO daily): minor and substantially similar tumor growth inhibition

C#Cc1cccc(Nc2ncnc3cc(OCCOC)c(OCCOC)cc23)c1 [Tarceva, erlotinib]
effect of the tyrosine kinase inhibitor in triplet therapy with Bcl-2 antisense and cytotoxic chemotherapeutic (comparison, interaction): does not significantly enhance the efficacy
